{
  "source": "paper PMC4129416",
  "about": "“YLT192, a Novel, Orally Active Bioavailable Inhibitor of VEGFR2 Signaling with Potent Antiangiogenic Activity and Antitumor Efficacy in Preclinical Models” (Scientific Reports, 2014)",
  "system": "zebrafish intersegmental vessels",
  "test": "Transgenic zebrafish (FLK-1: EGFP) embryonic angiogenesis model",
  "assay_type": "in vivo",
  "settings": "5 μM; zebrafish embryos treated 15 hpf, imaged 30 hpf",
  "source_text": "To test the anti-angiogenesis effects of YLT192 in vivo, we used a FLK-1 promoter enhanced green fluorescent protein (EGFP) transgenic zebrafish model.\nFigure 3 YLT192 inhibited angiogenesis in vivo. (A) Fluorescent images of 30 hpf zebrafish treated with vehicle or concentrations of YLT192. ISV growth was inhibited by YLT192. One representative experiment of three is shown. Data are means ± SEM (n = 10 per group), *P < 0.05, **P < 0.01. Scale bars represent 100 μm. […] Frozen sections of HCT116 tumors were tested by immunohistochemistry analysis with anti-CD31 antibody. Representative images of the tumor vasculature from vehicle and YLT192 treated mice were shown. The fields were averaged in each tumor, and the averages for each animal were used to give the final mean ± SD (n = 6 mice per group). *P < 0.05, **P < 0.01. Scale bars represent 100 μm. […] Alginate beads containing 5 × 10^4 CT26 cells were implanted s.c. into the backs of mice. Mice were then orally treated with YLT192 or vehicle once daily. Beads were surgically removed 14 days later and FITC-dextran was quantified. […] Data are means ± SD (n = 6 mice per group), *P < 0.05, **P < 0.01. Scale bars represent 500 μm.\nThe transgenic zebrafish (FLK-1: EGFP) was used in the experiments. The embryos were grown and maintained as described previously. […]",
  "note": "Entries after “also recorded” stand apart in the source; their conditions may differ.",
  "data": [
    {"smiles": "CNC(=O)c1cc(Oc2ccc(NC(=O)c3cccc(OC)c3)cc2)ccn1", "note": "[YLT192]", "values": [
      {"measurement": "formation of intersegmental vessels", "value": "considerably blocked; also recorded: significantly inhibited"}
    ]}
  ]
}
